Results as given in ChEMBL document CHEMBL1151100, “Potential cancer chemopreventive and cytotoxic agents from Pulicaria crispa” (1988).
≈ marks a conversion by molar mass, not a printed value.

Key:
[1] = system: KB; assay: Cytotoxicity against human KB cells; format: functional; conditions: read-out: ED50 (the source's name)
[2] = Anticarcinogenic activity in hamster embryonic cells at 25 ug/mL after 30 mins relative to control; format: functional, Cricetinae

SMILES	EC50 [1]	Activity [2]
C=C1C(=O)O[C@@H]2C[C@@]3(C)C[C@@H](O)C[C@H](C)C3=C[C@H]12	0.33 µg/mL (≈ 1.33 µM)	
C=C1C(=O)O[C@@H]2C[C@@]3(C)C[C@@H](O)C[C@H](C)[C@@]34O[C@H]4[C@H]12	0.4 µg/mL (≈ 1.51 µM)	
C=C1C(=O)O[C@@H]2C[C@@]3(C)C[C@@H](OC(C)=O)C[C@H](C)[C@@]34O[C@H]4[C@H]12	0.05 µg/mL (≈ 0.163 µM)	
COc1c(O)cc2oc(-c3ccc(O)c(O)c3)c(OC)c(=O)c2c1O [AXILLARIN]		61.3%
